Test results from ChEMBL document CHEMBL1201862, “PubChem BioAssay data set” (2004).
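48-hour exposure; five concentrations; linearly interpolated endpoints. GI50 marks 50% less growth.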 Activity calls are given as the source filed them. No stated cut-off is given here; in the data, active = GI50 up to about 1.1 µM and inactive = higher.

Legend:
Experiment in all cases: inhibition of tumour cell growth, NCI panel, 48 h
OVCAR-5 = system: OVCAR-5
TK-10 = system: TK-10
SK-OV-3 = system: SK-OV-3
SNB-19 = system: SNB-19
SK-MEL-28 = system: SK-MEL-28
HCT-116 = system: HCT-116
SF-295 = system: SF-295
HOP-92 = system: HOP-92
786-0 = system: 786-0
SW-620 = system: SW-620
OVCAR-3 = system: OVCAR-3
CCRF-CEM = system: CCRF-CEM
DU-145 = system: DU-145
K562 = system: K562
SNB-75 = system: SNB-75
U-251 = system: U-251
UO-31 = system: UO-31
IGROV-1 = system: IGROV-1
RPMI-8226 = system: RPMI-8226
SF-268 = system: SF-268
HT-29 = system: HT-29
HCT-15 = system: HCT-15
HOP-62 = system: HOP-62
OVCAR-4 = system: OVCAR-4
PC-3 = system: PC-3
A498 = system: A498
NCI/ADR-RES = system: NCI/ADR-RES
M14 = system: M14
Malme-3M = system: Malme-3M
ACHN = system: ACHN
OVCAR-8 = system: OVCAR-8
Hs-578T = system: Hs-578T
MDA-N = system: MDA-N
NCI-H23 = system: NCI-H23
LOX IMVI = system: LOX IMVI
UACC-257 = system: UACC-257
KM12 = system: KM12
SK-MEL-2 = system: SK-MEL-2
UACC-62 = system: UACC-62
NCI-H226 = system: NCI-H226
EKVX = system: EKVX
MOLT-4 = system: MOLT-4
COLO 205 = system: COLO 205
MCF7 = system: MCF7
MDA-MB-231 = system: MDA-MB-231
A549 = system: A549
SK-MEL-5 = system: SK-MEL-5
MDA-MB-435 = system: MDA-MB-435
SN12C = system: SN12C

Question: `O=C1/C(=C/c2ccc(Cl)cc2)NC(=S)N1CN1CCOCC1` was tested. Which GI50 (OVCAR-5) did it give?
Answer: > 100 µM (inactive)

Question: And the GI50 (TK-10)?
Answer: > 100 µM (inactive)

Question: And the GI50 (SK-OV-3)?
Answer: > 100 µM (inactive)

Question: What about the GI50 (SNB-19) of the same molecule?
Answer: > 100 µM (inactive)

Question: What about the GI50 (SK-MEL-28) of the same molecule?
Answer: > 100 µM (inactive)

Question: What about the GI50 (HCT-116) of the same molecule?
Answer: > 100 µM (inactive)

Question: What about the GI50 (SF-295) of the same molecule?
Answer: > 100 µM (inactive)

Question: And the GI50 (HOP-92)?
Answer: > 100 µM (inactive)

Question: And the GI50 (786-0)?
Answer: > 100 µM (inactive)

Question: And the GI50 (SW-620)?
Answer: > 100 µM (inactive)

Question: And the GI50 (OVCAR-3)?
Answer: > 100 µM (inactive)

Question: What about the GI50 (CCRF-CEM) of the same molecule?
Answer: 74 µM (inactive)

Question: What about the GI50 (DU-145) of the same molecule?
Answer: > 100 µM (inactive)

Question: And the GI50 (K562)?
Answer: > 100 µM (inactive)

Question: What about the GI50 (SNB-75) of the same molecule?
Answer: > 100 µM (inactive)

Question: And the GI50 (U-251)?
Answer: > 100 µM (inactive)

Question: And the GI50 (UO-31)?
Answer: > 100 µM (inactive)

Question: And the GI50 (IGROV-1)?
Answer: > 100 µM (inactive)

Question: And the GI50 (RPMI-8226)?
Answer: > 100 µM (inactive)

Question: What about the GI50 (SF-268) of the same molecule?
Answer: > 100 µM (inactive)

Question: And the GI50 (HT-29)?
Answer: > 100 µM (inactive)

Question: And the GI50 (HCT-15)?
Answer: > 100 µM

Question: What about the GI50 (HOP-62) of the same molecule?
Answer: > 100 µM (inactive)

Question: What about the GI50 (OVCAR-4) of the same molecule?
Answer: > 100 µM (inactive)

Question: And the GI50 (PC-3)?
Answer: > 100 µM (inactive)

Question: What about the GI50 (A498) of the same molecule?
Answer: 57.3 µM (inactive)

Question: And the GI50 (NCI/ADR-RES)?
Answer: > 100 µM (inactive)

Question: What about the GI50 (M14) of the same molecule?
Answer: > 100 µM (inactive)

Question: What about the GI50 (Malme-3M) of the same molecule?
Answer: > 100 µM (inactive)

Question: And the GI50 (ACHN)?
Answer: > 100 µM (inactive)

Question: What about the GI50 (OVCAR-8) of the same molecule?
Answer: > 100 µM (inactive)

Question: And the GI50 (Hs-578T)?
Answer: > 100 µM (inactive)

Question: What about the GI50 (MDA-N) of the same molecule?
Answer: > 100 µM (inactive)

Question: What about the GI50 (NCI-H23) of the same molecule?
Answer: > 100 µM (inactive)

Question: And the GI50 (LOX IMVI)?
Answer: > 100 µM (inactive)

Question: What about the GI50 (UACC-257) of the same molecule?
Answer: > 100 µM (inactive)

Question: What about the GI50 (KM12) of the same molecule?
Answer: > 100 µM (inactive)

Question: What about the GI50 (SK-MEL-2) of the same molecule?
Answer: > 100 µM (inactive)

Question: And the GI50 (UACC-62)?
Answer: > 100 µM (inactive)

Question: And the GI50 (NCI-H226)?
Answer: > 100 µM (inactive)

Question: What about the GI50 (EKVX) of the same molecule?
Answer: > 100 µM (inactive)

Question: And the GI50 (MOLT-4)?
Answer: > 100 µM (inactive)

Question: And the GI50 (COLO 205)?
Answer: > 100 µM (inactive)

Question: What about the GI50 (MCF7) of the same molecule?
Answer: > 100 µM (inactive)

Question: What about the GI50 (MDA-MB-231) of the same molecule?
Answer: > 100 µM (inactive)

Question: What about the GI50 (A549) of the same molecule?
Answer: > 100 µM (inactive)

Question: And the GI50 (SK-MEL-5)?
Answer: > 100 µM (inactive)

Question: What about the GI50 (MDA-MB-435) of the same molecule?
Answer: > 100 µM (inactive)

Question: What about the GI50 (SN12C) of the same molecule?
Answer: > 100 µM (inactive)
